Experimental data from patent US9249163B2, “PDE10a inhibitors for the treatment of type II diabetes” (Janssen Pharmaceutica, NV, priority 2013, dated 2016).
Structures can show the parent of a compound that is named as a salt.

Assays:
[1] = target: Human recombinant PDE10A2 (Homo sapiens (Human), UniProt Q9Y233); experiment: In vitro hPDE10a (human recombinant PDE10A2, scintillation proximity assay); format: biochemical; details: human recombinant PDE10A2, 60 nM cAMP, 60 min at room temperature; read-out: hPDE10a2 IC50
Procedure: Human recombinant PDE10A2 was expressed in Sf9 cells, using a recombinant baculovirus construct containing the full length sequence containing a 6×His sequence following the start Met to allow metal affinity purification of the recombinant protein. Cells were harvested and the phosphodiesterase protein was purified by metal chelate chromatography on Ni-sepharose 6FF.
The affinity of the compounds of Formula (I) for phophodiesterases (PDE) was measured by a scintillation proximity assay (SPA). PDE Yttrium Silicate SPA beads allow PDE activity to be measured by direct binding of the primary phosphate groups of non-cyclic AMP or GMP to the beads via a complex iron chelation mechanism. The amount of bound tritiated product ([^3H]-AMP) is measured by liquid scintillation counting.
The compounds were dissolved and diluted in 100% DMSO in polystyrene plates to a concentration of 100-fold the final concentration in the assay. Human PDE10A enzyme solution (10 μL) was added to 20 μL, of incubation buffer (50 mM Tris pH 7.8, 8.3 mM MgCl2, 1.7 mM EGTA), 10 μL, substrate solution consisting of a mixture of non-tritiated and tritiated substrate (60 nM cAMP, 0.008 μCi ^3H-cAMP), and 0.4 μL, compound in 100% DMSO in a 384-well plate, and incubated for 60 min at room temperature. After incubation, the reaction was stopped with 20 μL, of stop solution, consisting of PDE SPA beads (17.8 mg beads/mL in 18 mM zinc sulphate). After sedimentation of the beads for 30 min, the radioactivity was measured in a Perkin Elmer Topcount scintillation counter and results were expressed as cpm. To measure the low control, no enzyme was added to the reaction mixture.
Data were calculated as the percentage of inhibition of total activity measured in the absence of test compound (% control).

[2] = target: Rat recombinant PDE10a (rPDE10a) (Rattus norvegicus (Rat), UniProt Q9QYJ6); experiment: In vitro assay PDE10a (rat recombinant PDE10a, SPA); format: biochemical; details: 60 nM cAMP, 60 min at rt, read-out: rPDE10a2 IC50
Procedure: Rat recombinant PDE10a (rPDE10a) was expressed in Sf9 cells using a recombinant rPDE10a baculovirus construct. Cells were harvested after 48 h of infection and the rPDE10a protein was purified by metal chelate chromatography on Ni-sepharose 6FF. Tested compounds were dissolved and diluted in 100% DMSO to a concentration 100 fold of the final concentration in the assay. Compound dilutions (0.4 μL) were added in 384 well plates to 20 μL of incubation buffer (50 mM Tris pH 7.8, 8.3 mM MgCl2, 1.7 mM EGTA). 10 μL of rPDE10a enzyme in incubation buffer was added and the reaction was started by addition of 10 μL substrate to a final concentration of 60 nM cAMP and 0.008 μCi ^3H-cAMP. The reaction was incubated for 60 min at rt. After incubation, the reaction was stopped with 20 μL of 17.8 mg/mL PDE SPA beads. After sedimentation of the beads during 30 min the radioactivity was measured in a Perkin Elmer Topcount scintillation counter and results were expressed as cpm. For blank values the enzyme was omitted from the reaction and replaced by incubation buffer. Control values were obtained by addition of a final concentration of 1% DMSO instead of compound.

Rat recombinant PDE10a (rPDE10a), sequence (Q9QYJ6 whole entry): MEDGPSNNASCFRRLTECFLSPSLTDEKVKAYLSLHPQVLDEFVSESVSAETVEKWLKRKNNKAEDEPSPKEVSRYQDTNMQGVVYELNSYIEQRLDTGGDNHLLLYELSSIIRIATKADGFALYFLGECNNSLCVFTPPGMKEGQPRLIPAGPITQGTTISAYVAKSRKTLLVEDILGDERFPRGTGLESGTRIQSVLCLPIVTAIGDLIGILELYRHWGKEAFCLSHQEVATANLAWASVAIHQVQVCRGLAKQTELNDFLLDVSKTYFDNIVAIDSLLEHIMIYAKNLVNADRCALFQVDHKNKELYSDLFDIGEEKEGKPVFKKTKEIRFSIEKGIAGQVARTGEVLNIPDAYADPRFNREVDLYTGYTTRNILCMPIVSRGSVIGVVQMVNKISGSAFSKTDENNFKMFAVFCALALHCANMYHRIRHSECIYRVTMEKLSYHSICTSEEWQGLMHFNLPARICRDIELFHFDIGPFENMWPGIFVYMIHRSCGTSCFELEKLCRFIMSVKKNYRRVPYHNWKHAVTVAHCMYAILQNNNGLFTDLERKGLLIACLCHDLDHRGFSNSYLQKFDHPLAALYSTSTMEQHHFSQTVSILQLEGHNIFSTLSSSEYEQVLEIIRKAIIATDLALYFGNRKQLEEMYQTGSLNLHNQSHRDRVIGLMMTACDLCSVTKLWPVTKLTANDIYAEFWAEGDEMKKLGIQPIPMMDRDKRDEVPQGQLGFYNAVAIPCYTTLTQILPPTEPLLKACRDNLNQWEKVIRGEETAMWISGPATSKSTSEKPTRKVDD
Human recombinant PDE10A2, sequence (Q9Y233 267-1055): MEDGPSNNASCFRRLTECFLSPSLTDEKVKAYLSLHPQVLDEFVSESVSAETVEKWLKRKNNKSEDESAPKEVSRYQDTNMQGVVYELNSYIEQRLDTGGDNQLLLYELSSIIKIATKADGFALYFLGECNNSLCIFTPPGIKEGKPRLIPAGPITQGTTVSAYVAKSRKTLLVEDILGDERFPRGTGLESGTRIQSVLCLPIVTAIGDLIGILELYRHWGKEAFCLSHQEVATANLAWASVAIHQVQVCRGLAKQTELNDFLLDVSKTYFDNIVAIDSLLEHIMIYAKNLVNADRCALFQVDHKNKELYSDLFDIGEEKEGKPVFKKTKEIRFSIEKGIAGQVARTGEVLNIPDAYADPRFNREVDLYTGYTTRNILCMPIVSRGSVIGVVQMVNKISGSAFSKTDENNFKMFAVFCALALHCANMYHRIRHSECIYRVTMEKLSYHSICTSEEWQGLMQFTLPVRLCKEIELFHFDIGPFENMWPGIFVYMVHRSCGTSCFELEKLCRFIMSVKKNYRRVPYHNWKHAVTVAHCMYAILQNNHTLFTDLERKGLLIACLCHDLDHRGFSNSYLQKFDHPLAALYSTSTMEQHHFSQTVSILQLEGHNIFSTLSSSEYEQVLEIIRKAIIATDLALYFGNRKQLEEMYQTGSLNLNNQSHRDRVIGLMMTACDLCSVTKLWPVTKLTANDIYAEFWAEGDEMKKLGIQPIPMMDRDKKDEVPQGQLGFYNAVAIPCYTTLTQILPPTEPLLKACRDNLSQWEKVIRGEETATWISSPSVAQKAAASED

Row | SMILES | IC50 [1] | IC50 [2]
1 | OC(c1ccc(-c2cnc(N3CCOCC3)c3nc(/C=C/c4ccc5ccccc5n4)cn23)cc1)(C(F)(F)F)C(F)(F)F [Cpd 2, (E)-1,1,1,3,3,3-hexafluoro-2-(4-(8-morpholino-2-(2-(quinolin-2-yl)vinyl)imidazo[1,2-a]pyrazin-5-yl)phenyl)propan-2-ol] | 30 nM | 20 nM
2 | O=C(O)c1ccc(-c2cnc(N3CCOCC3)c3nc(/C=C/c4ccc5ccccc5n4)cn23)cc1F [Cpd 3, (E)-2-Fluoro-4-(8-morpholino-2-(2-(quinolin-2-yl)vinyl)imidazo[1,2-a]pyrazin-5-yl)benzoic acid hydrochloric acid salt] | 5 nM | 9 nM
3 | O=C(O)c1ccc(-c2cnc(N3CCOCC3)c3nc(/C=C/c4ccc5ccccc5n4)cn23)nc1 [Cpd 6, (E)-6-(8-morpholino-2-(2-(quinolin-2-yl)vinyl)imidazo[1,2-a]pyrazin-5-yl)nicotinic acid hydrochloric acid salt] | 12 nM | 14 nM
4 | COc1cccc(/C=C/c2cn3c(-c4ccc(C(=O)O)cc4)cnc(N4CCOCC4)c3n2)n1 [Cpd 7, (E)-4-(2-(2-(6-Methoxypyridin-2-yl)vinyl)-8-morpholinoimidazo[1,2-a]pyrazin-5-yl)benzoic acid] | 6 nM | 16 nM
5 | O=C(O)Cn1cc(-c2cnc(N3CCOCC3)c3nc(C#Cc4ccc5ccccc5n4)cn23)cn1 [Cpd 9, 2-(4-(8-Morpholino-2-(quinolin-2-ylethynyl)imidazo[1,2-a]pyrazin-5-yl)-1H-pyrazol-1-yl)acetic acid] | 1 nM | 2 nM
6 | O=C(O)c1ccc(-c2cnc(N3CCOCC3)c3nc(C#Cc4ccccn4)cn23)cc1 [Cpd 10, 4-(8-Morpholino-2-(pyridin-2-ylethynyl)imidazo[1,2-a]pyrazin-5-yl)benzoic acid] | 12 nM | 16 nM
7 | O=C(O)c1ccc(-c2cnc(N3CCOCC3)c3nc(C#Cc4nc5ccccc5s4)cn23)cc1 [Cpd 11, 4-(2-(Benzo[d]thiazol-2-ylethynyl)-8-morpholinoimidazo[1,2-a]pyrazin-5-yl)benzoic acid] | 7 nM | 9 nM
8 | CS(=O)(=O)NC(=O)c1ccc(-c2cnc(N3CCOCC3)c3nc(CSc4ccc5ccccc5n4)cn23)cc1 [Cpd 12, N-(Methylsulfonyl)-4-(8-morpholino-2-((quinolin-2-ylthio)methyl)imidazo[1,2-a]pyrazin-5-yl)benzamide] | 2 nM | 4 nM
9 | CC(C)[C@H](Nc1ccc(-c2cnc(N3CCOCC3)c3nc(/C=C/c4ccc5ccccc5n4)cn23)cc1)C(=O)O [Cpd 15, (S,E)-3-Methyl-2-(4-(8-morpholino-2-(2-(quinolin-2-yl)vinyl)imidazo[1,2-a]pyrazin-5-yl)phenylamino)butanoic acid trifluoroacetic acid salt] | 30 nM | 51 nM
10 | O=C(O)c1ccc(-c2cnc(N3CCOCC3)c3nc(CCc4ccc5ccccc5n4)cn23)cc1 [Cpd 17, 4-(8-Morpholino-2-(2-(quinolin-2-yl)ethyl)imidazo[1,2-a]pyrazin-5-yl)benzoic acid trifluoroacetic acid salt] | 3 nM | 3 nM
11 | COCCOCCOc1ccc(-c2cnc(N3CCOCC3)c3nc(/C=C/c4ccc5ccccc5n4)cn23)cc1 [Cpd 18, (E)-4-(5-(4-(2-(2-Methoxyethoxy)ethoxy)phenyl)-2-(2-(quinolin-2-yl)vinyl)imidazo[1,2-a]pyrazin-8-yl)morpholine] | 83 nM | 102 nM
12 | CN1C(=O)Nc2ccc(-c3cnc(N4CCOCC4)c4nc(/C=C/c5ccc6ccccc6n5)cn34)cc2S1(=O)=O [Cpd 19, (E)-2-Methyl-7-(8-morpholino-2-(2-(quinolin-2-yl)vinyl)imidazo[1,2-a]pyrazin-5-yl)-2H-benzo[e][1,2,4]thiadiazin-3(4H)-one 1,1-dioxide] | 18 nM | 15 nM
13 | CN1C(=O)N(C)S(=O)(=O)c2cc(-c3cnc(N4CCOCC4)c4nc(/C=C/c5ccc6ccccc6n5)cn34)ccc21 [Cpd 20, (E)-2,4-Dimethyl-7-(8-morpholino-2-(2-(quinolin-2-yl)vinyl)imidazo[1,2-a]pyrazin-5-yl)-2H-benzo[e][1,2,4]thiadiazin-3(4H)-one 1,1-dioxide] | 8 nM | 26 nM
14 | O=c1[nH]cnn1-c1ccc(-c2cnc(N3CCOCC3)c3nc(CCc4ccc5ccccc5n4)cn23)cc1 [Cpd 21, 1-(4-(8-Morpholino-2-(2-(quinolin-2-yl)ethyl)imidazo[1,2-a]pyrazin-5-yl)phenyl)-1H-1,2,4-triazol-5(4H)-one] | 25 nM | 31 nM
15 | O=C(O)CCNc1ccc(-c2cnc(N3CCOCC3)c3nc(/C=C/c4ccc5ccccc5n4)cn23)cc1 [Cpd 22, (E)-3-(4-(8-Morpholino-2-(2-(quinolin-2-yl)vinyl)imidazo[1,2-a]pyrazin-5-yl)phenylamino)propanoic acid trifluoroacetic acid salt] | 9 nM | 9 nM
16 | O=C(O)CCNc1ccc(-c2cnc(N3CCOCC3)c3nc(CCc4ccc5ccccc5n4)cn23)cc1 [Cpd 23, 3-(4-(8-Morpholino-2-(2-(quinolin-2-yl)ethyl)imidazo[1,2-a]pyrazin-5-yl)phenylamino)propanoic acid trifluoroacetic acid salt] | 8 nM | 6 nM

Second part, the compound after the results:

Row | IC50 [1] | IC50 [2] | SMILES
17 | 3 nM | 5 nM | CN1C(=O)NS(=O)(=O)c2cc(-c3cnc(N4CCOCC4)c4nc(/C=C/c5ccc6ccccc6n5)cn34)ccc21 [Cpd 24, (E)-4-Methyl-7-(8-morpholino-2-(2-(quinolin-2-yl)vinyl)imidazo[1,2-a]pyrazin-5-yl)-2H-benzo[e][1,2,4]thiadiazin-3(4H)-one 1,1-dioxide trifluoroacetic acid salt]
18 | 2 nM | 3 nM | CS(=O)(=O)NC(=O)c1cncc(-c2cnc(N3CCOCC3)c3nc(/C=C/c4ccc5ccccc5n4)cn23)c1 [Cpd 25, (E)-N-(Methylsulfonyl)-5-(8-morpholino-2-(2-(quinolin-2-yl)vinyl)imidazo[1,2-a]pyrazin-5-yl)nicotinamide]
19 | 6 nM | 8 nM | O=C1NC(=O)C(c2ccc(-c3cnc(N4CCOCC4)c4nc(CCc5ccc6ccccc6n5)cn34)cc2)O1 (stereo not shown) [Cpd 26, 5-(4-(8-Morpholino-2-(2-(quinolin-2-yl)ethyl)imidazo[1,2-a]pyrazin-5-yl)phenyl)oxazolidine-2,4-dione trifluoroacetic acid salt]
20 | 2 nM | 2 nM | O=C(O)c1cncc(-c2cnc(N3CCOCC3)c3nc(/C=C/c4ccc5ccccc5n4)cn23)c1 [Cpd 27, (E)-5-(8-Morpholino-2-(2-(quinolin-2-yl)vinyl)imidazo[1,2-a]pyrazin-5-yl)nicotinic acid]
21 | 24 nM | 15 nM | O=C(O)CNc1ccc(-c2cnc(N3CCOCC3)c3nc(/C=C/c4ccc5ccccc5n4)cn23)cc1 [Cpd 29, (E)-2-(4-(8-Morpholino-2-(2-(quinolin-2-yl)vinyl)imidazo[1,2-a]pyrazin-5-yl)phenylamino)acetic acid trifluoroacetic acid salt]
22 | 1 nM | 115 nM | COCCOCCOc1ccc(-c2cnc(N3CCOCC3)c3nc(CCc4ccc5ccccc5n4)cn23)cc1 [Cpd 31, 4-(5-(4-(2-(2-Methoxyethoxy)ethoxy)phenyl)-2-(2-(quinolin-2-yl)ethyl)imidazo[1,2-a]pyrazin-8-yl)morpholine]
23 | – | 6 nM | CS(=O)(=O)NC(=O)c1ccc(-c2cnc(N3CCOCC3)c3nc(CCc4ccc5ccccc5n4)cn23)cc1 [Cpd 61, N-(Methylsulfonyl)-4-(8-morpholino-2-(2-(quinolin-2-yl)ethyl)imidazo[1,2-a]pyrazin-5-yl)benzamide hydrochloric acid salt]
24 | – | 16 nM | CS(=O)(=O)NC(=O)c1ccc(-c2cnc(N3CCOCC3)c3nc(/C=C/c4ccc5ccccc5n4)cn23)cc1 [Cpd 62, (E)-N-(Methylsulfonyl)-4-(8-morpholino-2-(2-(quinolin-2-yl)vinyl)imidazo[1,2-a]pyrazin-5-yl)benzamide hydrochloric acid salt]
